Assays:
Type in all cases: functional
[1] = system: Staphylococcus aureus; assay: Antibacterial activity against Staphylococcus aureus ATCC 6538 after 24 hr by disk diffusion method
[2] = system: Pseudomonas aeruginosa; assay: Antibacterial activity against Pseudomonas aeruginosa ATCC 27853 after 24 hr by disk diffusion method
[3] = system: Escherichia coli; assay: Antibacterial activity against Escherichia coli ATCC 25922 after 24 hr by disk diffusion method

Compound	inhibition zone (IZ) [1]	inhibition zone (IZ) [2]	inhibition zone (IZ) [3]
COc1cc(/C=N/n2c(-c3ccccc3)nc3cc(Cl)ccc3c2=O)ccc1O	15 mm	5 mm	21 mm
C/C(=N\n1c(-c2ccccc2)nc2cc(Cl)ccc2c1=O)c1ccc(O)cc1	15 mm	4 mm	22 mm
C/C(=N\n1c(-c2ccccc2)nc2cc(Cl)ccc2c1=O)c1ccc(Cl)cc1	15 mm	4 mm	22 mm
O=C(O)c1cn(C2CC2)c2cc(N3CCNCC3)c(F)cc2c1=O [CIPROFLOXACIN]	17 mm	18 mm	

From ChEMBL document CHEMBL3044987, “7-chloro-3-(substituted benzylidene/phenyl ethylidene amino)-2-phenylquinazolin-4(3H)-ones: synthesis, antimicrobial and antitubercular evaluation” (2012)
